Results as given in US9481648B2, “Kinase inhibitors” (Respivert Limited, priority 2013, dated 2016).
Like-named read-outs stand apart in the source and are kept apart here. Blank lines part the entries; values can stand above or below the molecule they belong to.

Experiments:
PBMCs = assay: LPS-induced TNFα/IL-8 release in PBMC cells (assay b); assay type: cell-based, human; conditions: LPS-stimulated, read-out: IC50 Values for Inhibition of Cytokine Release PBMCs IL-8
Protocol: Peripheral blood mononuclear cells (PBMCs) from healthy subjects are separated from whole blood using a density gradient (Lymphoprep, Axis-Shield Healthcare). The PBMCs are seeded in 96 well plates and treated with compounds at the desired concentration for 2 hours before addition of 1 ng/mL LPS (Escherichia Coli 0111:B4 from Sigma Aldrich) for 24 hours under normal tissue culture conditions (37° C., 5% CO2). The supernatant is harvested for determination of IL-8 and TNFα concentrations by sandwich ELISA (Duo-set, R&D systems) and read on the fluorescence microplate reader (Varioskan® Flash, ThermoFisher Scientific).

GSK 3α = GSK 3α (Homo sapiens (Human), UniProt P49840); assay: GSK 3α enzyme inhibition (FRET, Z-LYTE; Method 2); assay type: biochemical; conditions: read-out: IC50 Values for Enzyme Inhibition GSK3α
Summary of the method: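 Z-LYTE FRET assay: GSK3-α (500 ng/mL stock) preincubated 105 min at RT with compound at 10, 1, 0.1 or 0.01 μg/mL stock. FRET peptide (8 μM stock) and ATP (40 μM stock) were then added for 1 h, followed by protease development for 1 h. Phosphorylation was read as coumarin/fluorescein emission ratio.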

CYP3A4 = CYP3A4 (Homo sapiens (Human), UniProt P08684); assay: CYP3A4 inhibition study; assay type: in vitro ADME; conditions: 15 μM
Protocol: (§1) Assessment of certain in vitro ADME (absorption, distribution, metabolism, and excretion) parameters for certain compounds of the invention was conducted by BioFocus (Saffron Walden, UK).

CYP2C9 = CYP2C9 (Homo sapiens (Human), UniProt P11712); assay: CYP2C9 inhibition study; assay type: in vitro ADME; conditions: 5 μM (precipitation at 15 μM)
Protocol: as §1

[1] = Hydrolytic stability study; assay type: physicochemical; conditions: for % Parent Remaining: DMSO:water (3:1), 1 mg/mL
Protocol: Chemical stability of compounds of the invention was assessed in a mixture of DMSO and water (3:1) at a test compound concentration of 1 mg/mL
Sample Preparation • A 1.0 mg sample of test compound was dissolved in 750 μL of DMSO. Water (250 μL) was added slowly, ensuring no precipitation occurred.
Recording Stability • A 50 μL aliquot of the test solution was removed and analysed in duplicate by 5 μL HPLC injections. The peak area for the test compound was recorded following manual integration of the corresponding UV trace. • The test solution was heated to 60° C., with stirring, and 50 μL aliquots removed for HPLC analysis at 5 and 24 h timepoints.

Sequence of GSK 3α (P49840 whole entry): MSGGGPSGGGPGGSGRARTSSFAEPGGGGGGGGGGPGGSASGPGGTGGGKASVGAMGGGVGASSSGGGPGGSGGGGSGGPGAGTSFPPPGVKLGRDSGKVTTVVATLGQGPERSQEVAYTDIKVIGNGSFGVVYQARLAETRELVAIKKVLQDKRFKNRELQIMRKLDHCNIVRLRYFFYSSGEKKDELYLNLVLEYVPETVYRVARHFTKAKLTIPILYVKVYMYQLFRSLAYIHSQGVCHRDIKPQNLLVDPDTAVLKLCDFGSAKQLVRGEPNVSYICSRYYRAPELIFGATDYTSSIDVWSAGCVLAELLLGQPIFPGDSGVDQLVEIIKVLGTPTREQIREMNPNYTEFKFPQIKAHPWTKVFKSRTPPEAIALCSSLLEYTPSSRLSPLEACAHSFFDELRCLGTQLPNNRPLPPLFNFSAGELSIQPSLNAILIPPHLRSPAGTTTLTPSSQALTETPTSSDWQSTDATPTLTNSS
Sequence of CYP2C9 (P11712 whole entry): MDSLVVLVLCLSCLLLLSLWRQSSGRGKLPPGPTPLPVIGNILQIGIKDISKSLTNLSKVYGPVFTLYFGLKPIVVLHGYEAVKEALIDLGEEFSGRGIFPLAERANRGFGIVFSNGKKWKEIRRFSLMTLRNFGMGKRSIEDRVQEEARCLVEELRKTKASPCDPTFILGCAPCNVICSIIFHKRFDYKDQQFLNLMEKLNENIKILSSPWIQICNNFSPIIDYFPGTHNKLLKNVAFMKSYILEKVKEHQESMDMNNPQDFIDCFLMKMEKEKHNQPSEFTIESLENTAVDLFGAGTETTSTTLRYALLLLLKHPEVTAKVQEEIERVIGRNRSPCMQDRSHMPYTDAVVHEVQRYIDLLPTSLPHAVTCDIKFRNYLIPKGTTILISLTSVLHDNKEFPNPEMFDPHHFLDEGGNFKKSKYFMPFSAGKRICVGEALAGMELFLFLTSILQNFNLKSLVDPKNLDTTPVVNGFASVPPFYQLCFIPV
Sequence of CYP3A4 (P08684 whole entry): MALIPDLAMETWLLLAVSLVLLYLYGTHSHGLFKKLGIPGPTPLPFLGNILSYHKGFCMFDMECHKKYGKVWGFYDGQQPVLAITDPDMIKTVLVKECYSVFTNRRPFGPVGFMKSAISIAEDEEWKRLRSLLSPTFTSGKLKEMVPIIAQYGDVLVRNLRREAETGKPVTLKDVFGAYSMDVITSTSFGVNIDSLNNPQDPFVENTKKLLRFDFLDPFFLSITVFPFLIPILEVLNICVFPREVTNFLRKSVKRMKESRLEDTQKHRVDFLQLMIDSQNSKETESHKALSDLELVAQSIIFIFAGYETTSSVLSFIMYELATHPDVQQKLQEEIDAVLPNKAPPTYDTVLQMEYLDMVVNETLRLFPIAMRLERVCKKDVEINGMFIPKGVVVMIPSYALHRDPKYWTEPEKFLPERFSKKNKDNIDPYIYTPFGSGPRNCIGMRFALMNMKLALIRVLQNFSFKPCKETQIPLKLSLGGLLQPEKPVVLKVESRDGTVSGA

IC50 (GSK 3α): 6.29 µM
Structure (SMILES): COc1c(NC(=O)Nc2ccc(Oc3ccnc(Nc4ccccc4)c3)c3ccccc23)cc(C(C)(C)C)cc1C(=O)N[C@H]1CCOC1 [84(d), 3-[[4-[(2-Anilino-4-pyridyl)oxy]-1-naphthyl]carbamoylamino]-5-tert-butyl-2-methoxy-N-[(3S)-tetrahydrofuran-3-yl]benzamide]
IC50 (PBMCs; Homo sapiens, PBMC): 0.0115 µM

IC50 (GSK 3α): 2.52 µM
Structure (SMILES): COCCOCCOCCOCCNC(=O)c1cc(Nc2cc(Oc3ccc(NC(=O)Nc4cc(C(C)(C)C)cc(NS(C)(=O)=O)c4OC)c4ccccc34)ccn2)cc(OC)c1 [Example 85(v), 3-[[4-[[4-[[5-tert-Butyl-3-(methanesulfonamido)-2-methoxyphenyl]-carbamoylamino]-1-naphthyl]oxy]-2-pyridyl]amino]-5-methoxy-N-[2-[2-[2-(2-methoxyethoxy)ethoxy]ethoxy]-ethyl]benzamide]
IC50 (PBMCs): 0.0004 µM

15 μM % Inh (CYP3A4; CYP3A4, 0 min preincubation): 41%
15 μM % Inh (CYP3A4; CYP3A4, 30 min preincubation): 92%
% Inh (inhibition at 5 μM reported instead) (CYP2C9; CYP2C9, 0 min preincubation): 31^[†] %
% Inh (inhibition at 5 μM reported instead) (CYP2C9; CYP2C9, 30 min preincubation): 66^[†] %
Structure (SMILES): C#CC(C)(C)c1cc(NC(=O)Nc2ccc(Oc3ccnc(Nc4cc(C)c5[nH]ncc5c4)n3)c3ccccc23)n(-c2ccc(C)cc2)n1 [Ref Cpd A]

decomposition under the conditions of the hydrolytic stability experiment ([1]; 1 mg/mL in DMSO and water (3:1), 60° C., 5 and 24 h): substantial decomposition
% Parent Remaining ([1]; 0 min): 100%
% Parent Remaining ([1]; 60° C., 300 min): 82%
% Parent Remaining ([1]; 60° C., 1440 min): 36%
Structure (SMILES): C#Cc1cc(Nc2nccc(Oc3ccc(NC(=O)Nc4cc(C(C)C)nn4-c4ccc(C)cc4)c4ccccc34)n2)cc(C(=O)NCCN2CCOCC2)c1 [Reference Compound B, 3-ethynyl-5-((4-((4-(3-(3-isopropyl-1-(p-tolyl)-1H-pyrazol-5-yl)ureido)naphthalen-1-yl)oxy)pyrimidin-2-yl)amino)-N-(2-morpholinoethyl)benzamide, reference compound]
